This note sets out measurements from patent US20180009764A1, “METHOD FOR TREATING MACROPHAGE MIGRATION INHIBITORY FACTOR (MIF)-IMPLICATED DISEASES AND CONDITIONS WITH IODO PYRIMIDINE DERIVATIVES” (UNIVERSITY OF LOUISVILLE RESEARCH FOUNDATION, INC., priority 2009, published 2018).

For data set [1], the system named is Caco-2 monolayers. Briefly: Caco-2 cell permeability and transport. Details: Caco-2 Permeability Papp B-A / Caco-2 Permeability Papp A-B: unit not given here. Conditions: for Caco-2 Permeability Papp A-B: apical-to-basolateral. Format: in vitro ADME. The procedure: (§1) Cell permeability and transport mechanisms in Caco-2 and MDR1-MDCK monolayers experiments were performed in triplicate in the apical-to-basolateral and basolateral-to-apical direction using […]® wells containing either Caco-2 or MDR1-MDCK monolayers. A modified Hanks buffer pH 7.4 was used in both reservoir and receiver wells with the addition of 1% BSA in the receiver side. Confluent monolayers were used and their integrity was verified using reference compounds (Atenolol as a low permeability reference compound and Propanolol as a high permeability reference compound). A sample in the basolateral and apical sides was taken after 2 hours and the concentration measured by LC/MS-MS.
(Passage across Caco-2 layers is used to estimate intestinal permeability.)

In data set [2] the test system is MDR1-MDCK monolayers. Briefly: MDR1-MDCK cell permeability and transport. Format: in vitro ADME. To be noted: for Efflux: class in words. How it is done:
as §1

Data set [3] in a line: Microsomal stability in human liver microsomes. In kind it is in vitro ADME. Conditions: both, human, microsomes, pH 7.4.
Data set [4] is described as follows: in vitro. Format: in vitro ADME. Conditions: human, plasma, Human Plasma Protein Binding % Bound. From the text: Plasma protein binding was ascertained using dialysis equilibrium methods known in the art.
In data set [5] the test system is Du 145. As to the kind of experiment: Inhibition of tumor cells proliferation (CellTiter Glo). Format: cell-based. Conditions: Homo sapiens, 72 hours. The procedure:
Inhibition of the proliferation of tumor cells was investigated in vitro in several tumor cell lines. Cells of the desired tumor cell line were plated at 2×10^5 cells/ml in 96 well plates. Twice the indicated concentrations of the compounds of the invention were added to cells the following day in an equal volume of media. 72 hours later, cells were lysed and subjected to ATP determination using the CellTiter Glo-Luminescent Cell Viability Assay kit (Promega, Madison, Wis.). Experiments were done in triplicate. Results for the inhibition of cells proliferation are reported as IC50 (the concentration leading to a 50% inhibition of proliferation of the cell population) and are listed in Table 6. FIGS. 3 and 4 show bar graphs comparing the IC50s of specific embodiments of compounds of the invention across multiple tumor cell lines.

Data set [6] deals with T1, MIF (Homo sapiens, UniProt P14174).
T1 construct: the enzymatic activity of MIF present in cell lysates; endogenous in cells
T1 sequence (P14174 2-115 limits assumed): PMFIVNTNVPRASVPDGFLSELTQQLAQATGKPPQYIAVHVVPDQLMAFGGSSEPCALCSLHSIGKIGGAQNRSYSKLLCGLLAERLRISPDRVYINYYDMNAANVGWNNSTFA
Briefly: MIF cell lysate enzymatic inhibition. Format: biochemical. To be noted: cell lysates. How it is done: Normal or transformed cell lysates can be used to determine the concentration inhibiting the enzymatic activity of MIF present in cell lysates. Cells are cultured in the appropriate media to the required number of cells, collected, and lysed. Compounds to be characterized are solubilized in DMSO and serial dilutions are performed in order to obtain a range of concentrations including complete and no quantifiable inhibition.

The subject of data set [7] is Chick Chorioallantoic Membrane (CAM). Briefly: Chick chorioallantoic membrane (CAM) assay, o ring. In kind it is in vivo. To be noted: for Blood Vessel Density: o ring; for Anti-angiogenic properties: CAM assay, in words. How it is done: 8 groups with 10 embryos in each group were used in the experiment described below. Fresh fertile eggs were incubated for 3 days in a standard egg incubator at 37° C. for 3 days. On Day 3, eggs were cracked under sterile conditions and embryos were placed into 20×100 mm plastic plates and cultivated at 37° C. in an embryo incubator with a water reservoir on the bottom shelf. Air was continuously bubbled into the water reservoir using a small pump so that the humidity in the incubator is kept constant. On Day 6, a sterile silicon “o” ring was placed on each CAM and test compound dissolved in 0.5% methylcellulose was placed into each “o” ring in a sterile hood. Paclitaxel was used as a positive control. Embryos were returned to the incubator after addition of test material. Control embryos received 10 μL of vehicle alone. On Day 8, embryos were removed from the incubator and kept at room temperature while blood vessel density were determined under each “o” ring using an image capturing system at a magnification of 160×. The blood vessel density was measured using an angiogenesis scoring system in that arithmetic numbers 0 to 5 (or exponential numbers 1 to 32) are used to indicate number of blood vessels present at the treatment sites on the CAM. Number 5 represents the highest density and 0 represents no angiogenesis. The percent of inhibition at each dosing site was calculated using the score recorded for that site divided by the mean score obtained from the appropriate control samples for each individual experiment. The percent of inhibition for each dose of a given compound was calculated by pooling all results obtained for that dose from 8-10 embryos.

Data set [8] can be described thus: Pharmacokinetics parameters in rats. In kind it is in vivo. Conditions: rat, plasma; for Vd: intravenous, read-out: Volume of distribution; for clearance: iv, after i.v. administration; for half-life: read-out: Terminal plasma half-life (converted). The procedure: The pharmacokinetic parameters of several compounds were investigated in rodents. Both oral and iv administration were investigated in rats. Blood samples were collected over time; plasma was analyzed using an LC/MS-MS method. Pharmacokinetic parameters were calculated using Win-NonLin. Terminal plasma half-lives were 7.10 hr for ACT-MIF-001, 1.66 hr for ACT-MIF-002, and 1.50 hr for ACT-MIF-003. […] The volume of distribution values were 72666 mL/kg for ACT-MIF-001, 2118 mL/kg for ACT-MIF-002, and 1926 mL/kg for ACT-MIF-003.

In data set [9] the test system is pancreatic tumor model. Briefly: Efficacy study in a pancreatic tumor model. Format: in vivo. Conditions: daily 40 mg/kg IP; for Survival: FIG. 10. How it is done:
The activity of the compounds of the invention was investigated in a pancreatic tumor model using an experiment similar to the one described in EXAMPLE 69. Compounds ACT-MIF-002 and ACT-MIF-003 were dosed daily at 40 mg/kg via IP administration.
Lumbar regions of the control and treated groups were excised and sent for histopathological evaluation. […] In the example shown in FIG. 11, bone marrow of the vehicle treated mice is consistent with bone metastases (1) with evidence of surrounding skeletal muscle metastases from invading marrow tumor cells (2 and 3).

A word on the fraction unbound: it is the share of the substance not bound to proteins or other matrix. A word on the IC50: it is the concentration needed to halve the response being measured. What is called clearance is a measure of how efficiently the substance is removed, as volume per time. One may read the half-life as the time needed for the level to fall by half in the phase considered. As to `COc1ccc(-c2cc(I)ncn2)c(F)c1` [ACT-MIF-002, 4-Iodo-6-(2-fluoro-4-methoxyphenyl)pyrimidine], in data set [1], the “Caco-2 Efflux” value came to 1.7 and the “Caco-2 Permeability Class” value is on record as “Low”. The “Caco-2 Permeability Papp A-B” value in [1] (pH 7.4, 2 hours) was 0.2. Further, in data set [2], the Brain penetration classification entry was “Low”, the “P-gp Substrate” value is on record as “No” and the Efflux entry is recorded as “High”. For the same molecule, the “Metabolic Stability in Human Microsomes % Remaining” value in data set [3] (0 h) came out at 100%. Also, the “Metabolic Stability in Human Microsomes % Remaining” value in data set [3] (1 h) is reported as under 2%. Besides, the unbound share (fraction unbound) in data set [4] is 0.021. For the same molecule, half-maximal inhibition in data set [5] (IC50) required 24.9 µM. For the same molecule, the IC50 in [6] stood at 0.07 µM. Also, the “Blood Vessel Density” value in data set [7] (0.3 nM per CAM) is recorded as 9.4 ± 2.4. In [7] (3 nM per CAM), the “Blood Vessel Density” value stood at 8.6 ± 2.6. The “Blood Vessel Density” value in data set [7] (30 nM per CAM) is 4.4 ± 1.3. Moreover, in data set [7], the Anti-angiogenic properties entry is reported as “high anti-angiogenic properties”. Also, in data set [8], the Vd is 2.12 L/kg, the clearance was 132 mL/min/kg and the half-life was 1.66 h. In data set [9], the “Body weight and clinical signs of toxicity” value was “no body weight loss and no clinical signs of toxicity”; the Metastatic tumor burden result is given as “limited the metastatic tumor burden”; the Survival result is given as “significant impact on survival”. For the same molecule, the “Bone metastases, histopathology of lumbar region” value in [9] (FIG. 11) is listed as “no evidence of bone metastases”.

Turning to `Fc1ccccc1-c1cc(I)ncn1` [ACT-MIF-003, 4-Iodo-6-(2-fluorophenyl)pyrimidine], in data set [1], the “Caco-2 Permeability Class” value is listed as “High”. The “Caco-2 Permeability Papp A-B” value in data set [1] (pH 7.4, 2 hours) was 2.1. For the same molecule, in data set [1] (basolateral-to-apical, pH 7.4, 2 hours), the “Caco-2 Permeability Papp B-A” value worked out at 2.6. Also, in [2], the Brain penetration classification entry is listed as “High”, the “P-gp Substrate” value is “No” and the Efflux result is listed as “High”. In data set [3] (0 h), the “Metabolic Stability in Human Microsomes % Remaining” value came out at 100%. Also, the “Metabolic Stability in Human Microsomes % Remaining” value in [3] (1 h) is recorded as 57%. The fraction unbound in data set [4] was 0.038. The molecule further gave an IC50 in data set [5] of 16.5 µM. For the same molecule, inhibition in data set [6] was half-maximal at 0.2 µM (IC50). Further, the “Blood Vessel Density” value in data set [7] (0.3 nM per CAM) was found to be 11.6 ± 1.2. The “Blood Vessel Density” value in data set [7] (3 nM per CAM) is 4.2 ± 1.2. Besides, the “Blood Vessel Density” value in data set [7] (30 nM per CAM) is reported as 4.1 ± 0.7. Moreover, the Anti-angiogenic properties result in [7] is on record as “high anti-angiogenic properties”. Also, in data set [8], the Vd worked out at 1.93 L/kg, the clearance was 197 mL/min/kg and the half-life is 1.5 h. For the same molecule, in [9], the “Body weight and clinical signs of toxicity” value is “no body weight loss and no clinical signs of toxicity”; the Metastatic tumor burden entry is “limited the metastatic tumor burden”; the Survival result is given as “significant impact on survival”.
